For 19 compounds, Ki, IC50 and inhibition results are on record in ChEMBL document CHEMBL1156844, “Inhibition of neuraminidase activity by polyphenol compounds isolated from the roots of Glycyrrhiza uralensis” (Bioorg Med Chem Lett, 2010).

SMILES strings stand for the structures.

A short description of assay [1]: Inhibition of Spanish flu (A/Bervig_Mission/1/18) neuraminidase by noncompetitive inhibition assay. On the set-up: species or system Influenza A virus (A/Brevig Mission/1/1918(H1N1)).
Assay [2] is described as follows: Inhibition of Spanish flu (A/Bervig_Mission/1/18) neuraminidase. On the set-up: species or system Influenza A virus (A/Brevig Mission/1/1918(H1N1)).
The test system of assay [3] is Influenza A virus (A/Brevig Mission/1/1918(H1N1)). In words: Inhibition of Spanish flu (A/Bervig_Mission/1/18) neuraminidase at 200 uM.

In the case of `COc1cc(O)ccc1C(=O)/C=C/c1ccc(O)cc1`, the affinity in assay [1] corresponds to a Ki of 20.1 µM. This compound also returned an IC50 in assay [2] of 24.3 µM.
Consider `COc1c(CC=C(C)C)c(O)cc2c1C[C@H](c1ccc(O)cc1O)CO2`, for which, in assay [3], the inhibition stood at 20%.
Consider `COc1c2c(cc3oc(=O)c(-c4ccc(O)cc4O)cc13)OC(C)(CO)CC2` (stereo unspecified), for which the inhibition in assay [3] was determined as 10%.
On the same count and under the same terms, for `COc1cc2c(c(OC)c1CC=C(C)C)C(=O)[C@H](c1ccc(O)c(CC=C(C)C)c1O)CO2` the value was 30%.
In the case of `COc1cc2c(c(OC)c1CC=C(C)C)C[C@H](c1ccc(O)cc1O)CO2`, the inhibition in assay [3] was determined as 20%.
Same read-out and setting: for `COc1cc2oc(=O)c(-c3ccc(O)cc3O)cc2c(OC)c1CC=C(C)C` the value was 10%.
`COc1ccc(-c2coc3cc(O[C@@H]4O[C@H](CO)[C@@H](O)[C@H](O)[C@H]4O)ccc3c2=O)cc1` yielded an inhibition in assay [3] of 30%.
Compound `COc1c(CC=C(C)C)c(O)cc2oc(=O)c3c4ccc(O)cc4oc3c12` [GLYCYROL] had a Ki in assay [1] of 2.9 µM. This compound also displayed an IC50 in assay [2] of 3.1 µM.
For the compound `COc1c2c(cc3oc(=O)c4c5ccc(O)cc5oc4c13)OC(C)(C)CC2` [ISOGLYCYROL], the Ki in assay [1] stood at 77.5 µM. This compound also yielded an IC50 in assay [2] of 92.4 µM.
Taken in the same sequence, the figures for `O=C(/C=C/c1ccc(O)cc1)c1ccc(O)cc1O` [ISOLIQUIRITIGENIN] were 9.9 µM and 9 µM.
Taken in the same sequence, the figures for `O=C(/C=C/c1ccc(O[C@@H]2O[C@H](CO)[C@@H](O)[C@H](O)[C@H]2O[C@H]2OC[C@@](O)(CO)[C@@H]2O)cc1)c1ccc(O)cc1O` [ISOLIQUIRITIN APIOSIDE] were 14.2 µM and 12.9 µM.
Regarding `O=C(/C=C/c1ccc(O[C@@H]2O[C@H](CO)[C@@H](O)[C@H](O)[C@H]2O)cc1)c1ccc(O)cc1O` [ISOLIQUIRITIN], affinity in assay [1] was put at a Ki of 94 µM. For the same compound, the midpoint of inhibition in assay [2], the IC50, lay at 124 µM.
Taken in the same sequence, the figures for `COc1cc(O)c2c(=O)c(OC)c(-c3ccc(O)cc3)oc2c1` [KUMATAKENIN] were 90.3 µM and 36.4 µM.
Taken in the same sequence, the figures for `COc1c(CC=C(C)C)c(O)cc2oc(-c3ccc(O)cc3O)cc12` [LICOCOUMARONE] were 12.1 µM and 27.8 µM.
Taken in the same sequence, the figures for `CC(C)=CCc1c(O)cc2oc(-c3ccc(O)cc3)c(O)c(=O)c2c1O` [LICOFLAVONOL] were 33 µM and 20.6 µM.
On to `O=C1C[C@@H](c2ccc(O[C@@H]3O[C@H](CO)[C@@H](O)[C@H](O)[C@H]3O[C@H]3OC[C@@](O)(CO)[C@@H]3O)cc2)Oc2cc(O)ccc21` [LIQUIRITIN APIOSIDE], for which the Ki in assay [1] came to 20.4 µM. This compound also displayed an IC50 in assay [2] of 18.2 µM.
As for `O=C1C[C@@H](c2ccc(O[C@@H]3O[C@H](CO)[C@@H](O)[C@H](O)[C@H]3O)cc2)Oc2cc(O)ccc21` [LIQUIRITIN], in assay [1], the Ki came out at 124 µM. For the same compound, in assay [2], half-maximal inhibition (IC50) required 82.3 µM.
Taken in the same sequence, the figures for `O=C1C[C@@H](c2ccc(O)cc2)Oc2cc(O)ccc21` [LIQUIRTIGENIN] were 33.1 µM and 46.8 µM.
Consider `CCOC(=O)C1=C[C@@H](OC(CC)CC)[C@H](NC(C)=O)[C@@H](N)C1` [OSELTAMIVIR], for which, in assay [2], it took 1.59 µM to reach half-maximal inhibition (IC50).
